Experimental data taken from paper PMC5761851, “Application of a phenotypic drug discovery strategy to identify biological and chemical starting points for inhibition of TSLP production in lung epithelial cells” (PLoS ONE, 2018).

How the values were obtained:
Experiment in all cases: kinase selectivity panel
Assay type in all cases: biochemical
MLK1 = biological target: T1, MLK1 (Homo sapiens, UniProt P80192); conditions: read-out: percentage of control activity (POC), MLK1
T1 construct: purchased Eurofins Pharma Discovery Services (KinaseProfiler; Cerep BioPrint panel)
T1 sequence (P80192 whole entry): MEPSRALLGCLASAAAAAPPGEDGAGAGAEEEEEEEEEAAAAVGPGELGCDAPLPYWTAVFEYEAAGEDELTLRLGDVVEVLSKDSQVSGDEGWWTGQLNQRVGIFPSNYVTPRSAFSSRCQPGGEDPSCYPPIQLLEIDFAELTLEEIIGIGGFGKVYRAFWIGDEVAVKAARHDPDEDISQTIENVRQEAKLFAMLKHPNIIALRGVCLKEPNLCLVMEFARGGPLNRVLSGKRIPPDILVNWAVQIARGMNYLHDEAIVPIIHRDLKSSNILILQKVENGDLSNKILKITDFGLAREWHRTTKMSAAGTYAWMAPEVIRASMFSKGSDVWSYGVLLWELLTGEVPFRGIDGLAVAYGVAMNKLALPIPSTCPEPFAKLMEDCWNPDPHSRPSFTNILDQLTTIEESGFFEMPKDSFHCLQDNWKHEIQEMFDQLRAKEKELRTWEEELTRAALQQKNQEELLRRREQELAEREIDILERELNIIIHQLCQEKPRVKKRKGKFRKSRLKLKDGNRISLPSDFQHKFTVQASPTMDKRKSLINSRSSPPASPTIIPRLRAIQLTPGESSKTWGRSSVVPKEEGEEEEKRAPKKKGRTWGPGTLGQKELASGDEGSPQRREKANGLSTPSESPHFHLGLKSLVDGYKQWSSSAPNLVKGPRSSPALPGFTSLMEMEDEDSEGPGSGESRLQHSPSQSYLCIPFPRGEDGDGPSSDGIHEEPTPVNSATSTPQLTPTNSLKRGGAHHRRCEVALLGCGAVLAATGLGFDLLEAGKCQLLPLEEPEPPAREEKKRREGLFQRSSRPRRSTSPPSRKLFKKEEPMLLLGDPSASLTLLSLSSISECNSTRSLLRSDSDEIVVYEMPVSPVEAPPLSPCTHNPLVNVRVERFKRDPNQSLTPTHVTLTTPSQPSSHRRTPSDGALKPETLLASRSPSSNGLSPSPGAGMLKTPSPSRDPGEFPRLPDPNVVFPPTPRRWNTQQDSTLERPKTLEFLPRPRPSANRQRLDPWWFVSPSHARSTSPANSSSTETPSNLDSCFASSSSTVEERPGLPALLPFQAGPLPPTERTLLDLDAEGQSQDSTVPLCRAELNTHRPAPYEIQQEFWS
Method in brief: (§1)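 First, 125 representative kinases were exposed to 10 μM compound in duplicate; next, selected activities were titrated over 9 concentrations in duplicate, and IC50 values were calculated.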

Rse = biological target: T2, Rse (Homo sapiens, UniProt Q06418); conditions: read-out: percentage of control activity (POC), Rse
T2 construct: purchased Eurofins Pharma Discovery Services (KinaseProfiler; Cerep BioPrint panel)
T2 sequence (Q06418 41-890): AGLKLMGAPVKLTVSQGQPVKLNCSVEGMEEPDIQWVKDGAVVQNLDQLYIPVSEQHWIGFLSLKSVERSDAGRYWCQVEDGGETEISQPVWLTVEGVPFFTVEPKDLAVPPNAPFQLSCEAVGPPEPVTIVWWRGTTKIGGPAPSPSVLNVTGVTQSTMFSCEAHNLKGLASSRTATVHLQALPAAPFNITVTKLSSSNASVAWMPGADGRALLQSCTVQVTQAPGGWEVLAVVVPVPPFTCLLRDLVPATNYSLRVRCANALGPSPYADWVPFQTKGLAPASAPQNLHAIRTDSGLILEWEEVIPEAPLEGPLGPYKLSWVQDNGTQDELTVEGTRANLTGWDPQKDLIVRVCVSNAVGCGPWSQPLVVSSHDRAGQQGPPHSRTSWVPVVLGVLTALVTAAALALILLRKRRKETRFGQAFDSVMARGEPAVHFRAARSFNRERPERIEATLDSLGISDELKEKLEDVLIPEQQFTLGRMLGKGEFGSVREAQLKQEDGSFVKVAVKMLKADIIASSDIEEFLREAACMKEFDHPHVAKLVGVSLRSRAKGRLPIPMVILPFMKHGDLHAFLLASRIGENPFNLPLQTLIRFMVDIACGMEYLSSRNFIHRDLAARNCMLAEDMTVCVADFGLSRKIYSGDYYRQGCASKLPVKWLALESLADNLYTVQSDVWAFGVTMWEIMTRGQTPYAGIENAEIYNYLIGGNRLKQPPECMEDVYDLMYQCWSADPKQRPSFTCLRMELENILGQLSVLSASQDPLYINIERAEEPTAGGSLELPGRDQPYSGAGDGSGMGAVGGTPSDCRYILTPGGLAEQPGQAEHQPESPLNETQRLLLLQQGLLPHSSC
Method in brief: as §1

Flt1 = biological target: T3, Flt1 (Homo sapiens, UniProt P17948); conditions: read-out: percentage of control activity (POC), Flt1
T3 construct: purchased Eurofins Pharma Discovery Services (KinaseProfiler; Cerep BioPrint panel)
T3 sequence (P17948 27-1338): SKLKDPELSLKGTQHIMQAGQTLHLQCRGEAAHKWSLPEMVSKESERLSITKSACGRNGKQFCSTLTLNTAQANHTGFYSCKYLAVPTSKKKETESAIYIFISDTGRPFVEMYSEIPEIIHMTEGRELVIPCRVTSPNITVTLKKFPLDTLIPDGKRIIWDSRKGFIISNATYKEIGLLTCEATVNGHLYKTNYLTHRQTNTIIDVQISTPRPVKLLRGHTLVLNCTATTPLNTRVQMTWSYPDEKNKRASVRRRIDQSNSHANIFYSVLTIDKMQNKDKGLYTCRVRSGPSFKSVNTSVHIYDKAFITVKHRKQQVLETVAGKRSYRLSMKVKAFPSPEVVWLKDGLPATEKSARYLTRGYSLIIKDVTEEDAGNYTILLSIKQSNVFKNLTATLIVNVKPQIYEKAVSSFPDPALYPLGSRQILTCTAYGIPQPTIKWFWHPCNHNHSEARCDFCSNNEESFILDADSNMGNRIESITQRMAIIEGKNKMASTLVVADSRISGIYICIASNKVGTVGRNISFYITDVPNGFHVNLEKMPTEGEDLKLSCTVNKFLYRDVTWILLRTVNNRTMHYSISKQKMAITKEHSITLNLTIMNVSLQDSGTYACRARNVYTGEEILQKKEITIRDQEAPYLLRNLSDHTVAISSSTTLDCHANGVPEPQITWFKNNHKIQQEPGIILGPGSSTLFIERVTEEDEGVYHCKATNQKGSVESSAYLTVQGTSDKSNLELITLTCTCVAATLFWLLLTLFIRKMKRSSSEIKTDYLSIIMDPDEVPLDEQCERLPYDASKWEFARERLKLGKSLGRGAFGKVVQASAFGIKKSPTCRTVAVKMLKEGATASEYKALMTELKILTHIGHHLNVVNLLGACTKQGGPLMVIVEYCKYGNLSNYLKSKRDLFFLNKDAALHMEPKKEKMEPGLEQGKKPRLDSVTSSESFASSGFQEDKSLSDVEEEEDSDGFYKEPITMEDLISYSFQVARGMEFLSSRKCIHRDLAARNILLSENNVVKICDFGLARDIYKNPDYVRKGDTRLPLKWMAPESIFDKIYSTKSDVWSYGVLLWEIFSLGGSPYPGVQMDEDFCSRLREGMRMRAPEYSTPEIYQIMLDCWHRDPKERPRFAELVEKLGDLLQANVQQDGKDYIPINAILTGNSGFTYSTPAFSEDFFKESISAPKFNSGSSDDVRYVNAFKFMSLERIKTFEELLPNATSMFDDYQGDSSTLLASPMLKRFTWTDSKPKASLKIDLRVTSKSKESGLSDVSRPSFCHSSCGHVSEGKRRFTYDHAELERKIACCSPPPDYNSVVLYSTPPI
Method in brief: as §1

JAK2 = biological target: T4, JAK2 (Homo sapiens, UniProt O60674); conditions: read-out: percentage of control activity (POC), JAK2
T4 construct: purchased Eurofins Pharma Discovery Services (KinaseProfiler; Cerep BioPrint panel)
T4 sequence (O60674 whole entry): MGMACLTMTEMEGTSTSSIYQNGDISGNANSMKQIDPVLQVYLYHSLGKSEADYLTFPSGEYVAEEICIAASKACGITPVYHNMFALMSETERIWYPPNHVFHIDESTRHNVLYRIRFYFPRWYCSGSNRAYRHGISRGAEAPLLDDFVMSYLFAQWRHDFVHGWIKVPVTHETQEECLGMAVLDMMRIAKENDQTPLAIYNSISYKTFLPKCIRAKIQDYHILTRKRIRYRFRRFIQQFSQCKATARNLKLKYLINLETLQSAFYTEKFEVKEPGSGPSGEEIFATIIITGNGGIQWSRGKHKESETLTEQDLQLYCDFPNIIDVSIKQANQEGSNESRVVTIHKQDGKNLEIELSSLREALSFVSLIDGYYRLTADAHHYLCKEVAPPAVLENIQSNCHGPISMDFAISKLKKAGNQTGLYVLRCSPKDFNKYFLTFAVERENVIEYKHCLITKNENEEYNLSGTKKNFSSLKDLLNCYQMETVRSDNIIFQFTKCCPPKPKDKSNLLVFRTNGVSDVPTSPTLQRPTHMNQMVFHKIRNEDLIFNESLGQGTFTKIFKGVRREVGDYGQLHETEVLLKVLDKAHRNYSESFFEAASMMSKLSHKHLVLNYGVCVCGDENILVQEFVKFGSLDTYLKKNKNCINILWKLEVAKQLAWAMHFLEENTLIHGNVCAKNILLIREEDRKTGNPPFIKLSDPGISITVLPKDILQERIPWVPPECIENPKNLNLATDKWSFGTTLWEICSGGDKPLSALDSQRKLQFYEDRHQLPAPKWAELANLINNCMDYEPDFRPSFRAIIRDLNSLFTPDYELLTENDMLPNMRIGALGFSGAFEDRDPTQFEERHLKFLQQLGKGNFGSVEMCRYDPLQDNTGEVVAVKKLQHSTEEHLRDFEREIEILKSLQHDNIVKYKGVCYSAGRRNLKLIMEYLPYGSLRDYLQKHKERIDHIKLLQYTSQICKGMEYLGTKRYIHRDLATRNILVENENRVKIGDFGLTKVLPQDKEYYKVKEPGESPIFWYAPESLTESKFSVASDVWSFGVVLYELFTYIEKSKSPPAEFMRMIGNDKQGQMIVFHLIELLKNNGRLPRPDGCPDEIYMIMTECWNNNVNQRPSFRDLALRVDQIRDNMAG
Method in brief: as §1

IKKβ = biological target: T5, IKKβ (Homo sapiens, UniProt O14920); conditions: read-out: percentage of control activity (POC), IKKβ
T5 construct: purchased Eurofins Pharma Discovery Services (KinaseProfiler; Cerep BioPrint panel)
T5 sequence (O14920 1-756): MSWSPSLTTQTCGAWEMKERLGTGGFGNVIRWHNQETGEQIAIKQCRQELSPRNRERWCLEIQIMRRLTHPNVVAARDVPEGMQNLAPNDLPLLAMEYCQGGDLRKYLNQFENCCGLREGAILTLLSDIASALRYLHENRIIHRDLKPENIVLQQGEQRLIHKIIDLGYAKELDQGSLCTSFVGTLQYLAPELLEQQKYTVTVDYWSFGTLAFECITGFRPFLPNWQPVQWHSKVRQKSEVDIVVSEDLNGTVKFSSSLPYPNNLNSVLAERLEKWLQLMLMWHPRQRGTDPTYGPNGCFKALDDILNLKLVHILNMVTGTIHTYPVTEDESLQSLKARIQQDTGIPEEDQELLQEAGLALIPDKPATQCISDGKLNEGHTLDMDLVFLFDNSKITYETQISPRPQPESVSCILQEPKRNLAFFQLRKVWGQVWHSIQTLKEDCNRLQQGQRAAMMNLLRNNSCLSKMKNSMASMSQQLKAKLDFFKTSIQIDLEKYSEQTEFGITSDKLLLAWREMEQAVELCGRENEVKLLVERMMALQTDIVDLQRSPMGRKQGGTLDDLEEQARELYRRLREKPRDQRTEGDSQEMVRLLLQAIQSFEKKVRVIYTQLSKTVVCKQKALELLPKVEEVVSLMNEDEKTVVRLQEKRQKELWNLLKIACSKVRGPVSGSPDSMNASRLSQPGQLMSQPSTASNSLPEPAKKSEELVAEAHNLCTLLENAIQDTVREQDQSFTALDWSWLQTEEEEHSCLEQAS
Method in brief: as §1

MST1 = biological target: T6, MST1 (Homo sapiens, UniProt Q13043); conditions: read-out: percentage of control activity (POC), MST1
T6 construct: purchased Eurofins Pharma Discovery Services (KinaseProfiler; Cerep BioPrint panel)
T6 sequence (Q13043 1-487): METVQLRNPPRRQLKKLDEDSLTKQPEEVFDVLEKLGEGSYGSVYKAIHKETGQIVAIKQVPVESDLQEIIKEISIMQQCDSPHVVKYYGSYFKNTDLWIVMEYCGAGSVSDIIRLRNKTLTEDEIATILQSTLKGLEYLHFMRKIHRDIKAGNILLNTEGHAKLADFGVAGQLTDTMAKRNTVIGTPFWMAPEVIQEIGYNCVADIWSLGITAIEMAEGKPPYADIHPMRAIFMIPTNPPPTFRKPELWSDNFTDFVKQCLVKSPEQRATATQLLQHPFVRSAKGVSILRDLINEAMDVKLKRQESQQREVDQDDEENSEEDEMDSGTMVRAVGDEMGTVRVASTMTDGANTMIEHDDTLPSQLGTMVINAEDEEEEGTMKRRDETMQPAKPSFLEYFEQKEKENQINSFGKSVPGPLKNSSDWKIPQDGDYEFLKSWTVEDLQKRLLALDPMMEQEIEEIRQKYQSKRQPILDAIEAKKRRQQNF
Method in brief: as §1

FGFR1 = biological target: T7, FGFR1 (Homo sapiens, UniProt P11362); conditions: read-out: percentage of control activity (POC), FGFR1
T7 construct: purchased Eurofins Pharma Discovery Services (KinaseProfiler; Cerep BioPrint panel)
T7 sequence (P11362 22-822): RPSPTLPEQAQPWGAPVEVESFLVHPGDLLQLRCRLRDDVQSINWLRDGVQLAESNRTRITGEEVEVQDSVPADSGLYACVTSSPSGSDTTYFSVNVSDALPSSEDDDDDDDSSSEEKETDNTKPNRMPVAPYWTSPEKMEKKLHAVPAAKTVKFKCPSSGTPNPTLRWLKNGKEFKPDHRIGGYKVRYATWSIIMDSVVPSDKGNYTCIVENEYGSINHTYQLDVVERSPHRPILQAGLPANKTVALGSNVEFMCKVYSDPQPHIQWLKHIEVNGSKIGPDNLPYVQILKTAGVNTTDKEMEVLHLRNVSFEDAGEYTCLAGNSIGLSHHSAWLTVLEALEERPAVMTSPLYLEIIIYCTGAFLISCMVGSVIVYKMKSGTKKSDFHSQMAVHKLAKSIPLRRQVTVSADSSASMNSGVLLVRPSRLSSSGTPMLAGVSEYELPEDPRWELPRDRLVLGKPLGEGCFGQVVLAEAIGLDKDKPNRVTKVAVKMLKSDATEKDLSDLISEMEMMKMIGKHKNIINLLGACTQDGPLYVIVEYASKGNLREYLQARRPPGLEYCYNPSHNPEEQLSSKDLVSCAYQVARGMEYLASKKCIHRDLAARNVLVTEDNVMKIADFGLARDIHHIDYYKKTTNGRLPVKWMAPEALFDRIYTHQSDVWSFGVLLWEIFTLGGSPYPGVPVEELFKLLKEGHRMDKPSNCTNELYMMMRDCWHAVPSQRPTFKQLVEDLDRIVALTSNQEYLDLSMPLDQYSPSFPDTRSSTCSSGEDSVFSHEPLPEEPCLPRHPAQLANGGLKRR
Method in brief: as §1

CSK = biological target: T8, CSK (Homo sapiens, UniProt P41240); conditions: read-out: percentage of control activity (POC), CSK
T8 construct: purchased Eurofins Pharma Discovery Services (KinaseProfiler; Cerep BioPrint panel)
T8 sequence (P41240 whole entry): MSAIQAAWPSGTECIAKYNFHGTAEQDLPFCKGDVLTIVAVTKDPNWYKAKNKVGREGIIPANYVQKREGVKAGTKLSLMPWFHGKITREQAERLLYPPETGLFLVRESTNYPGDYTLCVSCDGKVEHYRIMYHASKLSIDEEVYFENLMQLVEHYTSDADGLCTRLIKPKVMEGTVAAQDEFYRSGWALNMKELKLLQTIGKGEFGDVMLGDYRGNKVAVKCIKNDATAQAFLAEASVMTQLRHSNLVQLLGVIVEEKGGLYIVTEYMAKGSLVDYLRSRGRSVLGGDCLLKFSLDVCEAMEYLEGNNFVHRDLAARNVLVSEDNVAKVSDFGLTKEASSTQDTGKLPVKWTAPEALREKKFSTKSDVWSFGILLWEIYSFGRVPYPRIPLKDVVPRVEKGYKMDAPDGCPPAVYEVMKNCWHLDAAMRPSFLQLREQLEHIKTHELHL
Method in brief: as §1

Question: For CC(C)(C)N1CCC(c2cc(-c3ccc(F)cc3Cl)c3cc[n+]([O-])c(-c4c(Cl)cccc4Cl)c3n2)CC1 [compound 2], which remaining activity at 10 µM (MLK1) is on record?
Answer: 99%

Question: What about the remaining activity at 10 µM (Rse) of the same compound?
Answer: 109%

Question: What about the remaining activity at 10 µM (Flt1) of the same compound?
Answer: 114%

Question: And the remaining activity at 10 µM (JAK2)?
Answer: 105%

Question: What about the remaining activity at 10 µM (IKKβ) of the same compound?
Answer: 102%

Question: What about the remaining activity at 10 µM (MST1) of the same compound?
Answer: 103%

Question: What about the remaining activity at 10 µM (FGFR1) of the same compound?
Answer: 80%

Question: And the remaining activity at 10 µM (CSK)?
Answer: 95%

Question: How did the remaining activity at 10 µM (MLK1) turn out when Cc1ccc(C(=O)NCC2CC2)cc1-c1ccc2c(c1)NC(=O)C21CCCC1 [compound 3] was run?
Answer: 97%

Question: And the remaining activity at 10 µM (Rse)?
Answer: 99%

Question: What about the remaining activity at 10 µM (Flt1) of the same compound?
Answer: 128%

Question: What about the remaining activity at 10 µM (JAK2) of the same compound?
Answer: 108%

Question: And the remaining activity at 10 µM (IKKβ)?
Answer: 107%

Question: What about the remaining activity at 10 µM (MST1) of the same compound?
Answer: 88%

Question: And the remaining activity at 10 µM (FGFR1)?
Answer: 95%

Question: And the remaining activity at 10 µM (CSK)?
Answer: 107%

Question: With Cn1cc(-c2cccc(-c3nc(C(=O)NC4C5CC6CC4CC(O)(C6)C5)c(N)nc3N)c2)cn1 (stereo not shown) [compound 4] as the compound, how does the remaining activity at 10 µM (MLK1) read?
Answer: 79%

Question: What about the remaining activity at 10 µM (Rse) of the same compound?
Answer: 92%

Question: What about the remaining activity at 10 µM (Flt1) of the same compound?
Answer: 84%

Question: What about the remaining activity at 10 µM (JAK2) of the same compound?
Answer: 88%

Question: And the remaining activity at 10 µM (IKKβ)?
Answer: 95%

Question: And the remaining activity at 10 µM (MST1)?
Answer: 58%

Question: What about the remaining activity at 10 µM (FGFR1) of the same compound?
Answer: 86%

Question: And the remaining activity at 10 µM (CSK)?
Answer: 94%

Question: Which results are given for CS(=O)(=O)N1CCN(c2ccc(Nc3ncc(C(N)=O)c(NC4CC4)n3)cc2)CC1 [compound 5]?
Answer: remaining activity at 10 µM (MLK1): -1%; remaining activity at 10 µM (Rse): 33%; remaining activity at 10 µM (Flt1): -3%; remaining activity at 10 µM (JAK2): -3%; remaining activity at 10 µM (IKKβ): 8%; remaining activity at 10 µM (MST1): -1%; remaining activity at 10 µM (FGFR1): 3%; remaining activity at 10 µM (CSK): 74%

Question: Which results are given for COc1c(NC(=O)c2ccc(C)c(-c3nnc4c(NCC(C)(C)C)nccn34)c2)cc(C(C)(C)C)cc1NS(C)(=O)=O [compound 7, reference compound]?
Answer: remaining activity at 10 µM (MLK1): 104%; remaining activity at 10 µM (Rse): 107%; remaining activity at 10 µM (Flt1): 80%; remaining activity at 10 µM (JAK2): 104%; remaining activity at 10 µM (IKKβ): 127%; remaining activity at 10 µM (MST1): 101%; remaining activity at 10 µM (FGFR1): 109%; remaining activity at 10 µM (CSK): 88%
